Test results as given in ChEMBL document CHEMBL1201862, “PubChem BioAssay data set” (2004).
Activity calls are given as the source filed them.

Tests used:
[1] = molecular target: Diphosphomevalonate decarboxylase (Streptococcus pneumoniae serotype 2 (strain D39 / NCTC 7466), UniProt Q9FD53); assay: diphosphomevalonate decarboxylase inhibitor confirmation – biochemical, cuvette format, coupled NADH fluorescence (AID 1028); format: functional
[2] = Luminescent dose response cell-based high throughput screening assay for inhibitors of the Janus kinase 2 mutant JAK2V617F. [Related pubchem assays: 1446 (Primary screen.), 1521 (Confirmation assay.), 1486 (Counter screen.)]; format: functional
BJ [3] = assay: BJ-TERT fibroblast viability loss – cell-based, RAS-independent, luminescence, dose response (AID 1933); format: functional; details: Homo sapiens
BJ [4] = assay: cells; format: functional, cell-based; details: Homo sapiens
BJ [5] = assay: BJ-TERT-LT-ST fibroblast viability loss – cell-based, RAS-independent, luminescence, dose response (AID 1935); format: functional; details: Homo sapiens;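 further: BJ fibroblasts immortalized with TERT plus LT and ST oncogenes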
[6] = DRD fibroblast viability loss – cell-based, non-viral oncogenic, luminescence, dose response (AID 1934); format: functional; details: Homo sapiens
Beta-galactosidase = Beta-galactosidase (Escherichia coli, UniProt Q8VNN2); assay: PubChem AID 485352; format: functional
Sequence of Beta-galactosidase (Q8VNN2 whole entry): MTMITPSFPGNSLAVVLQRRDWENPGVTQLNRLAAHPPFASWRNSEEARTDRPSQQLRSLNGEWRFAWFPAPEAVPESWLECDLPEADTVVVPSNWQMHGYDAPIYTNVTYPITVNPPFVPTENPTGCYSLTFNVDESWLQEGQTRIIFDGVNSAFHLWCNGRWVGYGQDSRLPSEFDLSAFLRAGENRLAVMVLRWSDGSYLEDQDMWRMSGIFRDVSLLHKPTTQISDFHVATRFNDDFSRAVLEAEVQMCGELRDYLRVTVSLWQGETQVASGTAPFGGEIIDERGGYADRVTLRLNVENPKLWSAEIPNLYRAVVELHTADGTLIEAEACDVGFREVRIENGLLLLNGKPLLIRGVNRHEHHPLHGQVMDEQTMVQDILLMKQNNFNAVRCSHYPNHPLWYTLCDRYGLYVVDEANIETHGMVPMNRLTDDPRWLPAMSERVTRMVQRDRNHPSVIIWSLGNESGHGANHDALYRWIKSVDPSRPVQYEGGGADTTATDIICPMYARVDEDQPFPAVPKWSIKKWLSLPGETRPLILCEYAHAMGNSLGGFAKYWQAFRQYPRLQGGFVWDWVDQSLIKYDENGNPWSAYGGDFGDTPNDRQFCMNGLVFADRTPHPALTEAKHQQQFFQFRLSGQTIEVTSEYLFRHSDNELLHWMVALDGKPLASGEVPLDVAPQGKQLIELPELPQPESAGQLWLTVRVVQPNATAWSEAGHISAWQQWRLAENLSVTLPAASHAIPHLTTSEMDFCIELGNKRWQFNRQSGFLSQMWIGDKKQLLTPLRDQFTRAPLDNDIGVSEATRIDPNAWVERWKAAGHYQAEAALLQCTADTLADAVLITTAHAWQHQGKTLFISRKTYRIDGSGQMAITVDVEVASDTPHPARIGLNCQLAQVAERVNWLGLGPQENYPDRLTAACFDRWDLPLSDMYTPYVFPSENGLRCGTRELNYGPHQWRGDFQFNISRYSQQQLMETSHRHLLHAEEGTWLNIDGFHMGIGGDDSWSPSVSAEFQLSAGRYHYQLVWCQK

Vero [7] = assay: mammalian cell viability reduction – secondary assay, cytotoxicity control for West Nile virus antiviral project, dose response (AID 1650); format: functional; details: Chlorocebus sabaeus
[8] = Luminescence-based dose response cell-based high throughput screening assay for cytotoxic compounds using the IEC-6 intestinal epithelial cell line. [Related pubchem assays: 1858 (Summary AID.), 1825 (Counterscreen.), 1907 (Confirmation screen.)]; format: functional
[9] = molecular target: T1, Type-1 angiotensin II receptor (Homo sapiens, UniProt P30556); assay: antagonism of angiotensin II type 1 receptor – cell-based, uHTS hits, selectivity assay for APJ receptor antagonist project, dose response (AID 463214); format: functional;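 further: antagonist potency against angiotensin II stimulated AT1 response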
T1 sequence (P30556 whole entry): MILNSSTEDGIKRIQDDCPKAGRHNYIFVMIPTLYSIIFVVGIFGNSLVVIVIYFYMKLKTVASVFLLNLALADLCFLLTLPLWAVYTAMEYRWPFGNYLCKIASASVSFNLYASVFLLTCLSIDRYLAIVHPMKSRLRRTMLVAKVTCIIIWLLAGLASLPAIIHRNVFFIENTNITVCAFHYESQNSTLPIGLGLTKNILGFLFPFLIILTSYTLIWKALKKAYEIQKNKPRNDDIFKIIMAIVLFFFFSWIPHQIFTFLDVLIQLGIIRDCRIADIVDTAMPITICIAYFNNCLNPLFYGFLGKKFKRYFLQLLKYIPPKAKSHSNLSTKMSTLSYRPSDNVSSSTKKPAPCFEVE

Nonstructural protein 1 = Nonstructural protein 1 (Influenza A virus, UniProt Q194T2); format: functional, Influenza A virus (A/California/07/2009(H1N1))
Sequence of Nonstructural protein 1 (Q194T2 whole entry): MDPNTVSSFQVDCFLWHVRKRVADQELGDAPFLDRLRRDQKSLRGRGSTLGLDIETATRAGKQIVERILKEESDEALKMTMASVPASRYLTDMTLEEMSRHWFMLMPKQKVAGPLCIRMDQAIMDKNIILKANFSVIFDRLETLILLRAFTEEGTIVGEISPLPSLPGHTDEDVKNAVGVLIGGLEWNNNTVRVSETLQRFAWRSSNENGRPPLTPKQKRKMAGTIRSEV

Vero [10] = assay: cells; format: functional, cell-based; details: Chlorocebus sabaeus
BJ [11] = assay: growth inhibition of engineered Ras-driven BJ cells – cell-based, alamar blue fluorescence, cherrypicked samples, dose response (AID 2631); format: functional; details: Homo sapiens;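 further: confirmatory dose-response assay in RAS-dependent BJ fibroblasts engineered with TERT, LT and ST, with cytotoxicity read by fluorescence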
INS1 = assay: INS-1E survival protection against cytokine death – cell-based, luminescence, retest, dose response (AID 449756); format: functional; details: Rattus norvegicus;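 further: cell death triggered by IL-1 beta plus TNF-alpha plus IFN-gamma mixture; protective hits raise ATP signal compared with cytokine alone wells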
Vero [12] = assay: cells; format: functional; details: Chlorocebus sabaeus
[13] = molecular target: 5-hydroxytryptamine receptor 1A (Homo sapiens, UniProt P08908); format: functional
Sequence of 5-hydroxytryptamine receptor 1A (P08908 whole entry): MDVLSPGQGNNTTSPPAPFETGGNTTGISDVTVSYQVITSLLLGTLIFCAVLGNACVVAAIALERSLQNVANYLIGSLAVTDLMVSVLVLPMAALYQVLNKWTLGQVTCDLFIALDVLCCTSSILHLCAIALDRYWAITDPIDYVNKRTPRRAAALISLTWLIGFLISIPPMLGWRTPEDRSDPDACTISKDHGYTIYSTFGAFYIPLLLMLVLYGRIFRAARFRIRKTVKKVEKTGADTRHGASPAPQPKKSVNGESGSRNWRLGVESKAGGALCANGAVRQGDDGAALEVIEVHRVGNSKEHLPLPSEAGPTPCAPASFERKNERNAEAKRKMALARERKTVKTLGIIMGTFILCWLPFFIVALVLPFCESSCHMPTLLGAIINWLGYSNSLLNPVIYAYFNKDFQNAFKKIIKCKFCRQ

[14] = molecular target: Voltage-gated inwardly rectifying potassium channel KCNH2 (Homo sapiens, UniProt Q12809); assay: concentration-dependent hERG rescue from blockers – cell-based, thallium flux, dose response (AID 2121); format: ADME
Sequence of Voltage-gated inwardly rectifying potassium channel KCNH2 (Q12809 whole entry): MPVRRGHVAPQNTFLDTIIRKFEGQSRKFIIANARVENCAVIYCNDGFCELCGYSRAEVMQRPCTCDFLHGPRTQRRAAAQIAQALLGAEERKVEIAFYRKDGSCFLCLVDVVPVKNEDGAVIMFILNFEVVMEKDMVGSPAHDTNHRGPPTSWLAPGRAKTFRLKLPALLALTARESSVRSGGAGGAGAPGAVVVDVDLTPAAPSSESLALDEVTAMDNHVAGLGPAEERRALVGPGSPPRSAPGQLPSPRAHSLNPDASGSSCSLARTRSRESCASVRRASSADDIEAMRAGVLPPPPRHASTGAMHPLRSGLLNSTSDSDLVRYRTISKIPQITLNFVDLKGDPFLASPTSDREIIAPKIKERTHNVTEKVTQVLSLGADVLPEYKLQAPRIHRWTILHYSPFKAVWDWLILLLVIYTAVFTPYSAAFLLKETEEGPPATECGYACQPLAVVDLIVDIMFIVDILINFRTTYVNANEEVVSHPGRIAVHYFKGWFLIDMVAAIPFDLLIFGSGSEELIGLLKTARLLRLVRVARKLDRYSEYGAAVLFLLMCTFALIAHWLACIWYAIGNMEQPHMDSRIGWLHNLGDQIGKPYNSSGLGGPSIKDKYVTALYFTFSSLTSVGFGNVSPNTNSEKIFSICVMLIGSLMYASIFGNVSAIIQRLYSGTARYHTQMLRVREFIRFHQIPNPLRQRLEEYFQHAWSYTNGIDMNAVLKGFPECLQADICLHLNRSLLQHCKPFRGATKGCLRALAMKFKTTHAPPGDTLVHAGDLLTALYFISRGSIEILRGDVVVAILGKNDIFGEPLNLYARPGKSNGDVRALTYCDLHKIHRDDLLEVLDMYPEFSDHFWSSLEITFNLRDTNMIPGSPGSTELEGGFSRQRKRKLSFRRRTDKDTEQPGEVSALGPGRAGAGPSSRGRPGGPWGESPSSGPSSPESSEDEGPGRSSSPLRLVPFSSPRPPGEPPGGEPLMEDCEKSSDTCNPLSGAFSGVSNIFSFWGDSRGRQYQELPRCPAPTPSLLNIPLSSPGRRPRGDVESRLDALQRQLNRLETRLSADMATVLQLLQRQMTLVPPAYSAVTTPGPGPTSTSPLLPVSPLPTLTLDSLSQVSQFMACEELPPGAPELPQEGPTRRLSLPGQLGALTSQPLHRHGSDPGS

Vero [15] = assay: Vero 76 cell viability after compound exposure – Vero 76 cells, synthesized analogs, cytotoxicity control for West Nile virus antiviral project, SAR follow-up (AID 2414); format: functional; details: Chlorocebus sabaeus
Vero [16] = assay: Vero cell viability after compound exposure – synthesized analogs, set II, cytotoxicity control for West Nile virus antiviral project, SAR follow-up (AID 2402); format: functional; details: Chlorocebus sabaeus
Estrogen receptor = molecular target: T2, Estrogen receptor (Homo sapiens, UniProt P03372);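 further: potency for inhibiting coactivator peptide recruitment to the receptor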
T2 sequence (P03372 whole entry): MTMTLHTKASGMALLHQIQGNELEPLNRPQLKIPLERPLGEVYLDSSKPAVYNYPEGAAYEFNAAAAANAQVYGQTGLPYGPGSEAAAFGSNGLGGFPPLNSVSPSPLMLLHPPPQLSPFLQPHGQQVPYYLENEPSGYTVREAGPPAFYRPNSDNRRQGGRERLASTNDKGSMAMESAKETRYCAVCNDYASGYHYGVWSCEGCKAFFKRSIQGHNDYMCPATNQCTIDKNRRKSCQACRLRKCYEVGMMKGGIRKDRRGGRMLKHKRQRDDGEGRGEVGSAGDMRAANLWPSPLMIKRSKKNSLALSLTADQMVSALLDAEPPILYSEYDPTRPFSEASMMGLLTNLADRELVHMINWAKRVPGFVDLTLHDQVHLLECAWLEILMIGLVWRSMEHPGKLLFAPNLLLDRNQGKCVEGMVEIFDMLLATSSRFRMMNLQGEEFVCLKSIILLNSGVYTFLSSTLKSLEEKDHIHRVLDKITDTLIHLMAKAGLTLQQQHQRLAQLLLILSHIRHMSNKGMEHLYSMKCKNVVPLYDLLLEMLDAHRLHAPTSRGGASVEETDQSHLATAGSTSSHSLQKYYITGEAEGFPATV

Estrogen receptor beta = Estrogen receptor beta (Homo sapiens, UniProt Q92731);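 further: recombinant ER-beta bound to coactivator SRC1 peptide in presence of estradiol agonist; inhibitors block coactivator peptide binding and lower the FRET signal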
Sequence of Estrogen receptor beta (Q92731 whole entry): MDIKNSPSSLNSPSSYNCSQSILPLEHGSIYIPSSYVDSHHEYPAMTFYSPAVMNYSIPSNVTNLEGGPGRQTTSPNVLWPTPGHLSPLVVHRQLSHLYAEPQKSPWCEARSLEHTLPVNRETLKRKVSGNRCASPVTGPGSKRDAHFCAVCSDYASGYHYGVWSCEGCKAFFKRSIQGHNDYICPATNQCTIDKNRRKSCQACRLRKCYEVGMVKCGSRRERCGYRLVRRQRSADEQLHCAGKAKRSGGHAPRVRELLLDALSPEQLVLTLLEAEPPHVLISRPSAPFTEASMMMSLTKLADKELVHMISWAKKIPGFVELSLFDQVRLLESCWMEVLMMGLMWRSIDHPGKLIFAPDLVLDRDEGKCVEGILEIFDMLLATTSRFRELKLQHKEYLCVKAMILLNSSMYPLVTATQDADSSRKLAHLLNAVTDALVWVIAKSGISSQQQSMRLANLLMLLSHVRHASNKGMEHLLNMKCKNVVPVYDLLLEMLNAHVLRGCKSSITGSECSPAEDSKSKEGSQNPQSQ

[17] = Trypanosoma cruzi growth suppression in host cells – NIH3T3 host cells, beta-gal luminescence, confirmation (AID 2044); format: functional, cell-based;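 further: intracellular parasites grown in NIH/3T3 mouse fibroblasts as host cells; luminescent beta-galactosidase reporter signal from transgenic T. cruzi replicating inside host cells; inhibitors lower the luminescence signal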
[18] = NIH3T3 cell viability loss – ATP luminescence, mouse fibroblasts, counter-screen, dose response (AID 2010); format: functional, cell-based;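 further: cells exposed to compound for about 90 hours before reading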

Sequence of Diphosphomevalonate decarboxylase (Q9FD53 whole entry): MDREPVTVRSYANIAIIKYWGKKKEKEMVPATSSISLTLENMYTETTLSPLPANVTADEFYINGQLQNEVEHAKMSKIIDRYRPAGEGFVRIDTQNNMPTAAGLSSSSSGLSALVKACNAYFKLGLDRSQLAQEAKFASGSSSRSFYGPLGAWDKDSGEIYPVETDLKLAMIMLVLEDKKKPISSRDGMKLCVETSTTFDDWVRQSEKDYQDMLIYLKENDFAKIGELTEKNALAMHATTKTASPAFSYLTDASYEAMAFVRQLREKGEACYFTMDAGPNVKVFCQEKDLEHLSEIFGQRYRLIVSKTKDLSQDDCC

Compound: O=C(c1cccc(-n2sc3ccccc3c2=O)c1)N1CCCCC1
- IC50 [1]: 13.6 µM (active)

Compound: Cc1nn(Cc2ccc(Cl)cc2Cl)c(C)c1NC(=O)CCl
- IC50 [2]: 2.44 µM (active)
- EC50 (BJ [3]): 8.35 µM (active)
- EC50 (BJ [4]): 21.2 µM (active)
- EC50 (BJ [5]): > 150 µM (inconclusive)
- EC50 [6]: 12.1 µM (active)

Compound: C/C(=N\NC(=O)c1ccc(F)cc1)c1ccccn1
- EC50 (BJ [3]): 0.844 µM (inconclusive)
- EC50 (Beta-galactosidase): > 40 µM (inactive)
- CC50 (Vero [7]): 2.28 µM (active)
- EC50 (BJ [4]): 1.98 µM (active)
- IC50 [8]: 0.54 µM (active)
- IC50 [9]: 1.96 µM (active)
- EC50 (BJ [5]): 3.53 µM (active)
- EC50 [6]: 5.06 µM (active)
- IC50 (Nonstructural protein 1): 3 µM (active)
- IC50 (Vero [10]): > 25 µM (active)
- EC50 (BJ [11]): 0.475 µM (active)
- AC50 (INS1): 0.523 µM (active)
- CC50 (Vero [12]): 2.98 µM (active)

Compound: CC(CCc1ccccc1)NC(=O)CSc1nc(N)cc(N)n1 (stereo not drawn)
- EC50 [13]: > 50 µM (not active)

Compound: COc1ccc(OC)c(NC(=S)NC(=O)c2ccc(Br)o2)c1
- EC50 [14]: 0.01 µM (active)

Compound: O=C(CSc1nc2cccc(I)c2c(=O)n1-c1ccccc1)Nc1ccc2c(c1)CCC2
- CC50 (Vero [15]): > 133 µM (active)
- CC50 (Vero [16]): > 200 µM (active)

Compound: CC(=N)/C(C#N)=C(/O)CSc1nnc(Cc2ccccc2F)n1N
- IC50 (Estrogen receptor): > 50 µM (not active)
- IC50 (Estrogen receptor beta): 13.6 µM (active)

Compound: CC(NS(=O)(=O)c1ccc(CCC(=O)N2CCN(C)CC2)cc1)c1ccccc1 (stereo not drawn)
- EC50 [17]: < 0.1 µM (active)
- EC50 [18]: > 60 µM (not active)
- EC50 (cells): 0.349 µM (active)
